The values below come from patent US12435061B2 (priority 2020, dated 2025).

Structures can show the parent of a compound that is named as a salt. Where two headings read alike, the source gives them in different places.

In this assay the target is hTRPV3 (Homo sapiens (Human), UniProt Q8NET8). Nature of the assay: Whole-cell patch clamp, hTRPV3 Phase 1 / Phase 2 currents. The format is cell-based. The source says: Whole-cell patch clamp experiments permit the detection of currents through the TRPV3 channel in the cell line described above. A glass electrode is brought into contact with a single cell and the membrane is then ruptured, permitting control of the voltage of the cell membrane and measurement of currents flowing across the membrane using the amplifier attached to the electrode. A perfusion system permits control of the extracellular solution, including the addition of blockers and activators of the current. The current can be activated by heating this solution to 28° C. or warmer or by addition of 20 μM 2-APB to the solution.
TRPV3 cells were induced 20-48 hours, removed from growth plates, and replated at low density (to attain good single-cell physical separation) on glass coverslips for measurement. In some cases, cells were grown in low density overnight on glass coverslips. Patch clamp recordings were made in the whole-cell mode with a holding potential of −40 mV. Every 5 seconds, a voltage ramp was applied from −120 to +100 mV, 400 ms in duration. Currents elicited were quantified at −80 mV and +80 mV. […] External solution was Ringer's solution described above.
P1 refers to the Phase 1 current for human (h) TRPV3, and P2 refers to the Phase 2 current for human (h) TRPV3.
In Tables 3 and 4, Phase 1 refers to Phase 1 current for human (h) TRPV3 or rat (r) TRPV3, and Phase 2 refers to Phase 2 current for human (h) TRPV3 or rat (r) TRPV3. The hTRPV3 and rTRPV3 assays were performed as described herein. hERG refers to the inhibition the human ERG (hERG) channel. NaV1.5, refers to the pore forming aL-subunit of the voltage-dependent cardiac Na(+) channel and is an integral membrane protein involved in the initiation and conduction of action potentials. hTRPV3 HAMA IC50 refers to the IC50 of TRPV3 cells stably expressed in TRex-293 cells. Solubility Ringer refers to the compounds' solubility in Ringer's solution. LM T1/2 refers to liver microsome half-lives in either rat or human liver microsomes. FLIPR IC50 refers to the IC50 of the test compounds against recombinant hTRPV3 cells.

The mark [1] stands for this setting: Phase 1 current, inward, whole-cell patch clamp, read-out: hTRPV3 Patch P1 Inwd.
The mark [2] stands for this setting: Phase 1 current, read-out: hTRPV3 (nM) (Phase 1).
Where [3] appears, read: Phase 2 current, inward, whole-cell patch clamp, read-out: hTRPV3 Patch P2 Inwd.
[4] abbreviates: Phase 2 current, read-out: hTRPV3 (nM) (Phase 2).
[5] abbreviates: Phase 1 current, human TRPV3, read-out: hTRPV3 (nM) Phase 1.

hTRPV3, sequence (Q8NET8 whole entry, the tested form may be a part): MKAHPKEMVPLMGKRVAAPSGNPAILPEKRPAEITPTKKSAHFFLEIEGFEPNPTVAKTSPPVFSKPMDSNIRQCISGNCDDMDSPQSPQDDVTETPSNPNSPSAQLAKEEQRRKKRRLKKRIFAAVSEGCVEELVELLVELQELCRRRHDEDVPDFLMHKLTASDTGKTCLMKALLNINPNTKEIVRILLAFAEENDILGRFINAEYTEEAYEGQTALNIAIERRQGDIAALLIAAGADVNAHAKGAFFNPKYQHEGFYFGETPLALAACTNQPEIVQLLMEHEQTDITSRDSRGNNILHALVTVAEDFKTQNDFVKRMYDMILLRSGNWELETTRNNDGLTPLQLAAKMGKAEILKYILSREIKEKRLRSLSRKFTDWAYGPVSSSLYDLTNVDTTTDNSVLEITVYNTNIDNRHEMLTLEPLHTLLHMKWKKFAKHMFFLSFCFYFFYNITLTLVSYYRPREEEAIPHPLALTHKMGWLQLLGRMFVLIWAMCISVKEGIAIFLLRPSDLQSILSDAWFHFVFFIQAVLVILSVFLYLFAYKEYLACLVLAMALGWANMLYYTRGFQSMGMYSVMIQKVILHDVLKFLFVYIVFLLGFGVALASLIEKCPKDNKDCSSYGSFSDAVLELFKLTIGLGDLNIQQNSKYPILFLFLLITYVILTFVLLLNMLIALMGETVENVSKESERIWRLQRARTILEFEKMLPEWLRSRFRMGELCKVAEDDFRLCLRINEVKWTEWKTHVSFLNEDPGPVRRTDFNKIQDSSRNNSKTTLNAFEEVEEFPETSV

Turning to `O=C(Nc1ccc(F)cc1)c1ccc(N2CC[C@H](Oc3ncccc3Cl)C2)c(CCO)c1` [Compound 1-319, (S)-4-(3-(3-chloropyridin-2-yloxy)pyrrolidin-1-yl)-N-(4-fluorophenyl)-3-(2-hydroxyethyl)benzamide], the IC50 is, setting by setting: under setting [1], over 1000 nM; under setting [2], 3440 nM.

As to `CCc1ccccc1Oc1ccc(N2CC[C@H](Oc3ccc(C#N)cn3)C2)c(CO)c1` [Compound 1-352], the IC50 was 100 to 1000 nM under setting [1] and 974 nM under setting [2].

On to `Cc1ccccc1-c1ccc(N2CC[C@H](Nc3ccc(C(F)(F)F)cn3)C2)c(CO)n1` [Compound 1-379, (S)-(6-o-tolyl-3-(3-(5-(trifluoromethyl)pyridin-2-ylamino)pyrrolidin-1-yl)pyridin-2-yl)methanol], for which the IC50 was over 1000 nM under setting [1], over 3200 nM under setting [2], over 1000 nM under setting [3] and over 3200 nM under setting [4].

As to `Cc1nccnc1C(=O)N1CCC(c2ccc(-c3ccccc3C3CC3)cc2CO)C1` (stereo not drawn) [Compound 2-104, (3-(2′-cyclopropyl-3-(hydroxymethyl)biphenyl-4-yl)pyrrolidin-1-yl)(3-methylpyrazin-2-yl)methanone], the IC50 is 756 nM under setting [5] and 100 to 1000 nM under setting [1].

In the case of `CNC(=O)c1ccccc1N1CC[C@H](Oc2ccc(C(F)(F)F)cn2)C1` [Compound 1-39, (S)—N-methyl-2-(3-(5-(trifluoromethyl)pyridin-2-yloxy)pyrrolidin-1-yl)benzamide], under setting [1], the IC50 was over 1000 nM.

With `NC(=O)c1cc(-c2ccccn2)ccc1N1CC[C@@H](Oc2ccccn2)C1` [Compound 1-88, (R)-5-(pyridin-2-yl)-2-(3-(pyridin-2-yloxy)pyrrolidin-1-yl)benzamide], the IC50 is, setting by setting: under setting [1], over 1000 nM; under setting [2], over 3200 nM; under setting [3], over 1000 nM; under setting [4], over 3200 nM.

For the compound `CCOc1ccccc1-c1ccc(C2CCN(C(=O)c3ccc(F)cn3)C2)c(CO)c1` (stereo not drawn) [Compound 2-59, (3-(2′-ethoxy-3-(hydroxymethyl)biphenyl-4-yl)pyrrolidin-1-yl)(5-fluoropyridin-2-yl)methanone], the IC50 is 62.1 nM under setting [5] and 10 to 100 nM under setting [1].

On to `CC(C)c1ccccc1Oc1ccc(C2CCN(Cc3ncccc3Cl)C2)c(CO)c1` (stereo not drawn) [Compound 2-92, (2-(1-((3-chloropyridin-2-yl)methyl)pyrrolidin-3-yl)-5-(2-isopropylphenoxy)phenyl)methanol hydrochloride], for which the IC50 is 592 nM under setting [5] and 100 to 1000 nM under setting [1].

On to `CCc1ccccc1-c1ccc(N2CC[C@H](Oc3ccc(C(F)(F)F)cn3)C2)c(CO)n1` [Compound 1-196, (S)-(6-(2-ethylphenyl)-3-(3-(5-(trifluoromethyl)pyridin-2-yloxy)pyrrolidin-1-yl)pyridin-2-yl)methanol], for which the IC50 is, setting by setting: under setting [1], over 1000 nM; under setting [2], over 3200 nM.

For `CN(C)Cc1ccccc1N1CC[C@H](Oc2ccc(C(F)(F)F)cn2)C1` [Compound 1-61, (S)—N,N-dimethyl-1-(2-(3-(5-(trifluoromethyl)pyridin-2-yloxy)pyrrolidin-1-yl)phenyl) methanamine hydrochloride], the IC50 under setting [1] is over 1000 nM.

For `OCc1cc(-c2ccccc2)ccc1N1CC[C@H](Oc2ncccc2Cl)C1` [Compound 1-126, (S)-(4-(3-(3-chloropyridin-2-yloxy)pyrrolidin-1-yl)biphenyl-3-yl)methanol], the IC50 under setting [3] lay in the range of 100 to 1000 nM and the IC50 under setting [4] worked out at 369 nM.

On to `OCc1cc(-c2ccccc2)ccc1N1CC[C@H](Oc2ccc(C(F)(F)F)nn2)C1` [Compound 1-397, (S)-(4-(3-(6-(trifluoromethyl)pyridazin-3-yloxy)pyrrolidin-1-yl)biphenyl-3-yl)methanol], for which the IC50 was over 1000 nM under setting [1], 2740 nM under setting [2], over 1000 nM under setting [3] and 1370 nM under setting [4].

Take `O=C(c1ccc(Cl)cc1)c1ccc(N2CC[C@H](Nc3ccc(F)cn3)C2)c(CCO)c1` [Compound 1-388, (S)-(4-chlorophenyl)(4-(3-(5-fluoropyridin-2-ylamino)pyrrolidin-1-yl)-3-(2-hydroxyethyl)phenyl)methanone]: the IC50 under setting [1] was over 1000 nM and the IC50 under setting [2] is over 3200 nM.

As to `COCc1ccccc1Oc1ccc(N2CC[C@H](Oc3ncccc3C)C2)c(CCO)c1` [Compound 1-350, (S)-2-(5-(2-(methoxymethyl)phenoxy)-2-(3-(3-methylpyridin-2-yloxy)pyrrolidin-1-yl)phenyl)ethanol], the IC50 was 100 to 1000 nM under setting [1] and 311 nM under setting [2].

Consider `Cc1ccccc1-c1ccc(N2CC[C@H](Oc3ccc(Cl)cn3)C2)c(CO)n1` [Compound 1-195, (S)-(3-(3-(5-chloropyridin-2-yloxy)pyrrolidin-1-yl)-6-o-tolylpyridin-2-yl)methanol], for which the IC50 under setting [1] was 100 to 1000 nM, the IC50 under setting [2] worked out at 106 nM, the IC50 under setting [3] lay within 10 to 100 nM and the IC50 under setting [4] amounted to 71.3 nM.

Take `CC(C)c1ccccc1Oc1ccc(N2CC[C@H](Oc3ccc(C#N)cn3)C2)c(CO)c1` [Compound 1-353]: the IC50 was 10 to 100 nM under setting [1] and 26.8 nM under setting [2].

“(3-(4-(4-chloro-3-ethylpyridin-2-yloxy)-2-(hydroxymethyl)phenyl)pyrrolidin-1-yl)(5-fluoropyridin-2-yl)methanone [Compound 2-43]”: the IC50 is, setting by setting: under setting [5], over 3200 nM; under setting [1], over 1000 nM.

Consider `Cc1cccc(CN2CC(c3ccc(Oc4ccccc4C(C)C)cc3C(N)=O)CC2=O)n1` (stereo not drawn) [Compound 2-97, 5-(2-isopropylphenoxy)-2-(1-((6-methylpyridin-2-yl)methyl)-5-oxopyrrolidin-3-yl)benzamide], for which the IC50 runs as follows: under setting [5], over 3200 nM; under setting [1], over 1000 nM.

On to `NC(=O)c1cc(-c2ccccn2)ccc1N1CC[C@H](Nc2ccc(C(F)(F)F)cn2)C1` [Compound 1-376, (S)-5-(pyridin-2-yl)-2-(3-(5-(trifluoromethyl)pyridin-2-ylamino)pyrrolidin-1-yl)benzamide], for which the IC50 is over 1000 nM under setting [1], over 3200 nM under setting [2], over 1000 nM under setting [3] and over 3200 nM under setting [4].

As for `NC(=O)c1cc(-c2ccccn2)ccc1N1CC[C@@H](Oc2ncccc2Cl)C1` [Compound 1-85, (R)-2-(3-(3-chloropyridin-2-yloxy)pyrrolidin-1-yl)-5-(pyridin-2-yl)benzamide], the IC50 reads like this: under setting [1], over 1000 nM; under setting [2], 3480 nM.

Take `NC(=O)c1cc(Oc2ccccc2)ccc1N1CC[C@H](Oc2ccc(C(F)(F)F)cn2)C1` [Compound 1-124, (S)-5-phenoxy-2-(3-(5-(trifluoromethyl)pyridin-2-yloxy)pyrrolidin-1-yl)benzamide]: the IC50 reads like this: (hTRPV3 Patch P1 Inwd (nM)) 100 to 1000 nM; (read-out: hTRPV3 (nM) (Phase 1)) 729 nM.

Turning to `OCCc1cc(C(O)c2ccc(Cl)cc2)ccc1N1CC[C@H](Oc2ncccc2Cl)C1` (stereo partly drawn) [Compound 1-292, 2-(5-((4-chlorophenyl)(hydroxy)methyl)-2-((S)-3-(3-chloropyridin-2-yloxy)pyrrolidin-1-yl)phenyl)ethanol], the IC50 reads like this: under setting [1], over 1000 nM; under setting [2], about 4900 nM; under setting [3], over 1000 nM; under setting [4], about 5100 nM.

Regarding `O=C(O)c1cc(-c2ccccc2)cnc1N1CC[C@@H](Oc2ccc(C(F)(F)F)cn2)C1` [Compound 1-91], the “hTRPV3 (nM) (Phase 1)” value (Phase 1 current) is reported as “Agonist (Phase 1)”.

For the compound `CCc1ccccc1C(O)c1ccc(N2CC[C@H](Nc3ncccc3Cl)C2)c(CO)c1` (stereo partly drawn) [Compound 1-386, (4-((S)-3-(3-chloropyridin-2-ylamino)pyrrolidin-1-yl)-3-(hydroxymethyl)phenyl)(2-ethylphenyl)methanol], the IC50 is, setting by setting: under setting [1], over 1000 nM; under setting [2], about 1260 nM; under setting [3], over 1000 nM; under setting [4], about 2150 nM.

As to `Cc1cccnc1-c1ccc(N2CC[C@H](Oc3ccc(C(F)(F)F)cn3)C2)c(CO)c1` [Compound 1-255, (S)-(5-(3-methylpyridin-2-yl)-2-(3-(5-(trifluoromethyl)pyridin-2-yloxy)pyrrolidin-1-yl)phenyl)methanol], the IC50 was 100 to 1000 nM under setting [1] and 806 nM under setting [2].

For the compound `CC(=O)NCc1cc(-c2ccccc2Cl)ccc1N1CC[C@H](Oc2ccc(C(F)(F)F)cn2)C1` [Compound 1-127, (S)—N-((2′-chloro-4-(3-(5-(trifluoromethyl)pyridin-2-yloxy)pyrrolidin-1-yl)biphenyl-3-yl)methyl)acetamide], the IC50 is, setting by setting: under setting [3], over 1000 nM; under setting [4], 1140 nM.
